{"source": "patent US20150025012A1", "about": "“METHODS AND COMPOSITIONS FOR IDENTIFICATION, ASSESSMENT AND TREATMENT OF CANCERS ASSOCIATED WITH HEDGEHOG SIGNALING” (Infinity Pharmaceuticals, Inc., priority 2010, published 2015)", "key": {"Bx-PC3 tumors": {"tested_on": "Bx-PC3 tumors", "assay": "Growth of Bx-PC3 tumors in mice", "assay_type": "in vivo", "settings": "single agents and combination", "excerpt": "Bevacizumab, a monoclonal antibody, exerts its activity by neutralizing VEGF, a factor important of the proliferation and survival of endothelial cells. […] In the same study, the relative effect of these agents was explored by measuring the mRNA expression of PECAM-1, a marker of endothelial cells and RGS5, a marker of pericytes. […] The role of the vasculature and its supporting pericyte population in the mechanism of action of IPI-926 continues to be explored.\nFor in vivo studies, tumors were grown in male NCR-nu/nu mice by subcutaneous injection of 5×10^6 cells. Tumor growth was monitored using calipers. When tumors reached an approximate size of 200 mm^3, tumor bearing animals were randomized into treatment arms and administered agents or vehicles as described."}, "Gli1": {"tested_on": "Gli1", "assay": "Nuclear Gli1 immunohistochemical staining of BCC lesion biopsies pre- and post-treatment", "assay_type": "in vivo, human", "procedure": "For immunohistochemical (IHC) detection, tissue samples can be fixed in 10% neutral buffered formalin at room temperature before processing for paraffin embedding. The length of fixation depends on the size of the tissue, for example, overnight but not more than 22-24 hours for large tissues; and no more than 2 hours for small core or needle biopsies. The fixed tissues are sectioned to 7 microns […] and mounted on Superfrost Microscope™ slides (Fisher Scientific).\nPrior to incubation with anti-Gli1 antibody, antigen retrieval can be performed to break the protein cross-links formed by formalin fixation and thereby reveal hidden antigens. Antigen retrieval buffers with different buffer compositions and pH are commercially available, for example, CC1 (Tris/EDTA, pH 8.0; Ventana, Cat. No. 950-124); CC2 (citrate, pH 6.0; Ventana, Cat. No. 950-123); citrate buffer (pH 6.0; Invitrogen, Cat. No. 00-5000); Target Retrieval Solution (citrate, pH 6.1; Dako, Cat. No. S170084); Target Retrieval Solution (Tris/EDTA, pH 9.0; Dako, Cat. No. S236884); Diva Decloaker (citrate, pH 6.2; Biocare, Cat. No. DV2004 mM); and EDTA Decloaker (EDTA based, pH 8.5; Biocare, Cat. No. CB917 L).\nAnti-Gli1 antibodies that can be used to detect nuclear Gli1 protein in tumor samples are commercially available. Exemplary anti-Gli1 antibodies include, e.g., rabbit polyclonal and monoclonal antibody from Cell Signaling Technology (Cat. Nos. 2553 and 3538, respectively); rabbit polyclonal antibody (H-300) from Santa Cruz Biotechnology (Cat. No. se-20687, described in Chung et al., J. Clin. Oncol. 2011; 29(10):1326-34); rabbit polyclonal antibody from Abcam (Cat. No. ab92611); rabbit polyclonal antibody from Abnova (Cat. No. PAB10214); rabbit polyclonal antibody from GenWay Biotech (Cat. No. 18-732-292074); rabbit polyclonal antibody from LifeSpan BioSciences (Cat. No. LS-C66529-50); rabbit polyclonal antibody from Novus Biologicals (Cat. No. NBP1-03294); mouse polyclonal antibody from ProSci (Cat. No. 49-519); goat polyclonal antibody from R&D Systems (Cat. No. AF3455); and rabbit polyclonal antibody from United States Biological (Cat. No. G2035-51A).\nDetection of tumor nuclear Gli1 staining in basal cell carcinomas (BCC) was performed using the protocols described in Example 9. FIGS. 23C and 23D show nuclear staining of Gli1 in biopsy samples of a BCC lesion pre- and 22-day post-treatment of IPI-926.\nThe definition of H-score is known in the art, e.g., as described in Detre, S. et al. (1995) J. Clin. Pathol. […] The intensity in the malignant cell nuclei can be scored as 0, 1, 2, or 3. […] The total number of cells in each field and the number of cells stained at each intensity are counted. The average percentage positive can be calculated and analyzed as described in Detre, S. et al. (1995) supra."}, "SHh signaling": {"tested_on": "SHh signaling", "assay": "SHh signaling in pericytic C3H10T1/2 cell cultures (qRT-PCR)", "assay_type": "cell-based, Mouse", "settings": "pericytic C3H10T1/2 cells, SHh plus IPI-926", "procedure": "To test this, a model of pericyte cell differentiation, the C3H10T1/2 cells was evaluated. C3H10T1/2 cells were differentiated in vitro into pericytes. C3H10T1/2 cells are believed to be pluripotent mesenchymal cells, which can be induced to differentiate into multiple different cell lineages, including myoblasts, adipocytes, osteoblasts and pericytes (Taylor, et al. (1979) Cell 17(4):771-9). In this case, cells are cultured to confluence and then allowed to differentiate over the course of 5 additional days of culture. At this time, the cells are seen to express high levels of CD13, an established marker of pericytes.\nWe subsequently explored if SHh signaling was intact in these pericyte cultures. In a typical experiment, confluent C3H10T1/2 cells were allowed to differentiate into pericyte-like cells. After 5 days in culture, SHh with or without IPI-926 were added to the cells in the presence of normal serum. On day 8 of culture, cells were re-fed SHh with or without IPI-926 and shifter to low serum. qRT-PCR analysis was performed on day 9. SHh signaling was detected in these cells as measured by Gli1 mRNA upregulation; the SHh signaling was inhibited by IPI-926 (FIG. 28). Cells were treated on day 8; Gli1 mRNA levels were evaluated in control samples, after SHh addition, after SHh and IPI-926 and cells treated with IPI-926 alone as shown in FIG. 28. […]"}, "tumor stroma [1]": {"tested_on": "tumor stroma", "assay": "Microvascular density (CD31 IHC) in tumor", "assay_type": "in vivo", "settings": "after treatment with IPI-926"}, "tumor stroma [2]": {"tested_on": "tumor stroma", "assay": "Uptake of imaging marker Gd-DTPA (DCE-MRI) and fluorescent drug and protein in tumors", "assay_type": "in vivo", "settings": "IPI-926 treated tumors"}, "[3]": {"tested_on": "human cell lines derived from patients with cancer", "settings": "pancreatic cancer, medulloblastoma, lung cancer, multiple myeloma, leukemias, lymphomas; cited from earlier work"}, "[4]": {"tested_on": "preclinical in vivo tumor models", "settings": "medulloblastoma, SCLC, NSCLC, skin, head and neck, ovarian cancer; cited from earlier work"}, "Hedgehog pathway": {"tested_on": "Hedgehog pathway", "settings": "after single administration; cited from earlier work"}, "[5]": {"settings": "post treatment versus pre treatment BCC sample"}}}
{"molecule": "CC1=C2C[C@H]3[C@@H](CC[C@@H]4C[C@H](NS(C)(=O)=O)CC[C@@]43C)[C@@H]2CC[C@@]2(C1)O[C@@H]1C[C@H](C)CN[C@H]1[C@H]2C", "note": "[IPI-926]", "values": [{"measurement": "activity on the growth of Bx-PC3 tumors", "setting": "Bx-PC3 tumors", "value": "approximately the same single agent activity"}, {"measurement": "overall reduction of Gli1 protein staining", "setting": "Gli1; [5]", "value": 57, "unit": "%"}, {"measurement": "reduction in nuclear Gli1 stain", "setting": "Gli1; [5]", "value": 60, "unit": "%"}, {"measurement": "nuclei stained positive for Gli1", "setting": "Gli1; post-treatment (27% before treatment)", "value": 16, "unit": "%"}, {"measurement": "H-score of Gli1 staining", "setting": "Gli1; post-treatment (100 before treatment)", "value": 57}, {"measurement": "SHh-induced Gli1 mRNA upregulation", "setting": "SHh signaling", "value": "inhibited"}, {"measurement": "SHh-induced downregulation of RGS5 mRNA", "setting": "SHh signaling", "value": "reversed"}, {"measurement": "microvascular density (MVD, CD31 IHC)", "setting": "tumor stroma [1]", "value": "increased"}, {"measurement": "uptake of imaging marker Gd-DTPA and fluorescent drug and protein (doxorubicin, lectin)", "setting": "tumor stroma [2]", "value": "increased uptake"}, {"measurement": "in vitro growth of human cell lines", "setting": "[3]", "value": "inhibit"}, {"measurement": "tumor growth in preclinical in vivo models", "setting": "[4]", "value": "tumor growth inhibition"}, {"measurement": "Hedgehog pathway inhibition in stromal cells", "setting": "Hedgehog pathway", "value": "rapid and sustained Hedgehog pathway inhibition"}]}
